Measurements as given in ChEMBL document CHEMBL4651402, “Screening of ~5500 FDA-approved drugs and clinical candidates for anti-SARS-CoV-2 activity” (2021).

Tested on: SARS-CoV-2
Assay: microbe, parasite or virus in culture
Details: Severe acute respiratory syndrome coronavirus 2, Vero C1008, 48 h

Row | Compound | IC50 | IC50 (read-out: pIC50 (converted))
1 | CC1CC2C3CCC4=CC(=O)C=CC4(C)[C@@]3(F)C(O)CC2(C)C1(O)C(=O)COP(=O)(O)O (some centres not stated) | > 20 µM | > 20 µM
2 | O=C(O)Cc1cccc(-c2cc(CCCCCCc3ccc(O[C@H]4O[C@H](CO)[C@@H](O)[C@H](O)[C@@H]4O)c(-c4cccc(CC(=O)O)c4)c3)ccc2O[C@H]2O[C@H](CO)[C@@H](O)[C@H](O)[C@@H]2O)c1 [BIMOSIAMOSE] | > 20 µM | > 20 µM
3 | N=C(N)N1CCc2ccccc2C1 [DEBRISOQUIN] | > 20 µM | > 20 µM
4 | COc1ccc(C(=O)Nc2ccccc2CCC2CCCCN2C)cc1 (configuration not stated) [ENCAINIDE] | > 20 µM | > 20 µM
5 | CCOc1ccc(Cc2nccc3cc(OCC)c(OCC)cc23)cc1OCC [ETHAVERINE] | > 20 µM | > 20 µM
6 | CN1C[C@H](C(=O)N[C@]2(C)O[C@@]3(O)[C@@H]4CCCN4C(=O)[C@H](Cc4ccccc4)N3C2=O)C[C@@H]2c3cccc4[nH]cc(c34)C[C@H]21 [DIHYDROERGOTAMINE] | > 20 µM | > 20 µM
7 | C1CCN2CC3CC(CN4CCCCC34)C2C1 (configuration not stated) | > 20 µM | > 20 µM
8 | CC1(C)S[C@@H]2[C@H](NC(=O)[C@H](N)c3ccccc3)C(=O)N2[C@H]1C(=O)OC1OC(=O)c2ccccc21 (some centres not stated) [TALAMPICILLIN] | > 20 µM | > 20 µM
9 | CN[C@H]1[C@H](O)[C@H](O[C@@H]2[C@@H](O)[C@H](O[C@H]3O[C@H]([C@@H](C)O)[C@@H](O)[C@H](O)[C@H]3N)[C@@H](N)C[C@H]2N)OC[C@@]1(C)O | > 20 µM | > 20 µM
10 | CCOC(=O)N1CCC(=O)N(c2ccccc2)c2cc(Cl)ccc21 [ARFENDAZAM] | > 20 µM | > 20 µM
11 | OC(c1ccccc1)(c1ccccc1)[C@@H]1C[C@H]1c1ccncc1 | > 20 µM | > 20 µM
12 | O=C(OCCN1CCCCCC1)C(c1ccsc1)C1CCCCC1 (configuration not stated) | > 20 µM | > 20 µM
13 | O=C1CC[C@@](c2ccccc2)(C2CCN(Cc3ccccc3)CC2)C(=O)N1 [DEXETIMIDE] | > 20 µM | > 20 µM
14 | Nc1nc(=S)c2ncn([C@@H]3O[C@H](CO)[C@@H](O)[C@H]3O)c2[nH]1 [THIOGUANOSINE] | > 20 µM | > 20 µM
15 | CN(C)CCCOC1(Cc2ccccc2)CCCCCC1 [BENCYCLANE] | > 20 µM | > 20 µM
16 | Cc1noc(-c2ccc(-c3ccc(C4(C(=O)O)CC4)cc3)cc2)c1NC(=O)O[C@@H](C)c1ccccc1 | > 20 µM | > 20 µM
17 | CC(C)C1C(=O)N2CCCC2C2(O)OC(NC(=O)C3C=C4c5cccc6[nH]cc(c56)CC4N(C)C3)(C(C)C)C(=O)N12 (configuration not stated) | > 20 µM | > 20 µM
18 | C[C@H]1C[C@@H]2[C@H]([C@@H](O)C[C@@]3(C)[C@H]2CC[C@]3(O)C(=O)CO)[C@@]2(C)C=CC(=O)C=C12 [METHYLPREDNISOLONE] | > 20 µM | > 20 µM
19 | CC(C=NNC(=N)N)=NNC(=N)N | > 20 µM | > 20 µM
20 | COc1cc([C@@H]2c3cc4c(cc3[C@@H](O[C@@H]3O[C@@H]5CO[C@@H](C)O[C@H]5[C@H](O)[C@H]3O)[C@H]3COC(=O)[C@H]23)OCO4)cc(OC)c1O [ETOPOSIDE] | > 20 µM | > 20 µM
21 | CC[C@H](CO)Nc1nc(NCc2ccccc2)c2ncn(C(C)C)c2n1 [SELICICLIB] | > 20 µM | > 20 µM
22 | CC#CCn1c(N2CCC[C@@H](N)C2)nc2c1c(=O)n(Cc1nc(C)c3ccccc3n1)c(=O)n2C [LINAGLIPTIN] | > 20 µM | > 20 µM

Row | Compound | IC50 | IC50 (read-out: pIC50 (converted))
23 | O=C(O)Cc1sc(-c2ccccc2)nc1-c1ccc(Cl)cc1 [FENTIAZAC] | > 20 µM | > 20 µM
24 | CC(C)(C)NCC(O)c1cc(O)cc(O)c1 (configuration not stated) [TERBUTALINE] | > 20 µM | > 20 µM
25 | Cn1cc(-c2cc3c(N4CCN(c5ncc([C@@](C)(N)c6ccc(F)cc6)cn5)CC4)ncnn3c2)cn1 [AVAPRITINIB] | > 20 µM | > 20 µM
26 | Cc1ccc2c(Br)cc(Br)c(OC(=O)c3ccccc3)c2n1 [BROXALDINE] | > 20 µM | > 20 µM
27 | Cl/C(=C\n1cncn1)c1ccc(Cl)cc1Cl [LORECLEZOLE] | > 20 µM | > 20 µM
28 | COC(=O)C1=C(C)NC(C)=C(C(=O)OCC(C)C)C1c1ccccc1[N+](=O)[O-] (configuration not stated) [NISOLDIPINE] | > 20 µM | > 20 µM
29 | CC(=O)OCC(=O)C1(O)CCC2C3CCC4=CC(=O)C=CC4(C)C3C(O)CC21C (configuration not stated) | > 20 µM | > 20 µM
30 | CC(=O)NCCCCCC(=O)O [ACEXAMIC ACID] | > 20 µM | > 20 µM
31 | CO[C@@]1(NC(=O)CSCC#N)C(=O)N2C(C(=O)O)=C(CSc3nnnn3C)CS[C@@H]21 [CEFMETAZOLE] | > 20 µM | > 20 µM
32 | CCC(OC(C)=O)C(CC(C)NC)(c1ccccc1)c1ccccc1 (configuration not stated) [NORACYMETHADOL] | > 20 µM | > 20 µM
33 | Cn1c(=O)n(-c2ccc(C(C)(C)C#N)cc2)c2c3cc(-c4cnc5ccccc5c4)ccc3ncc21 [DACTOLISIB] | > 20 µM | > 20 µM
34 | C=CCN1CCCC1CNC(=O)c1cc2nn[nH]c2cc1OC (configuration not stated) [ALIZAPRIDE] | > 20 µM | > 20 µM
35 | CN(C)CCC=C1c2ccccc2CCc2ccccc21 [AMITRIPTYLINE] | > 20 µM | > 20 µM
36 | CN1CCC(=C2c3ccccc3CCc3sccc32)CC1 [PIZOTYLINE] | > 20 µM | > 20 µM
37 | c1cnc2cc3c(cc2n1)[C@@H]1CNC[C@H]3C1 [VARENICLINE] | > 20 µM | > 20 µM
38 | CO[C@H](C)[C@](O)(C(=O)OCC1=CCN2CC[C@H](O)[C@@H]12)C(C)C [HELIOTRINE] | > 20 µM | > 20 µM
39 | CCCCCCCCCCCC1=C(O)C(=O)C=C(O)C1=O [EMBELIN] | > 20 µM | > 20 µM
40 | Nc1ccc(S(N)(=O)=O)cc1 [SULFANILAMIDE] | > 20 µM | > 20 µM
41 | COc1cccc(OC)c1C(=O)N[C@@H]1C(=O)N2[C@@H]1SC(C)(C)[C@@H]2C(=O)O [METHICILLIN] | > 20 µM | > 20 µM
42 | CC(C)c1cnn2c(NCc3ccccc3)cc(NC[C@H]3CCNC[C@@H]3O)nc12 [CT-7001] | > 20 µM | > 20 µM
43 | CCCNC(C)(C)COC(=O)c1ccccc1 [MEPRYLCAINE] | > 20 µM | > 20 µM
44 | CN[C@H](CC(C)C)C(=O)N[C@H]1C(=O)N[C@@H](CC(N)=O)C(=O)N[C@H]2C(=O)N[C@H]3C(=O)N[C@H](C(=O)N[C@H](C(=O)O)c4cc(O)cc(O)c4-c4cc3ccc4O)[C@H](O[C@H]3C[C@](C)(N)[C@@H](O)[C@H](C)O3)c3ccc(c(Cl)c3)Oc3cc2cc(c3O[C@@H]2O[C@H](CO)[C@@H](O)[C@H](O)[C@H]2O[C@H]2C[C@](C)(NCc3ccc(-c4ccc(Cl)cc4)cc3)[C@@H](O)[C@H](C)O2)Oc2ccc(cc2Cl)[C@H]1O [ORITAVANCIN] | > 20 µM | > 20 µM

Row | Compound | IC50 | IC50 (read-out: pIC50 (converted))
45 | Cc1cc2cc3c(C)cc(=O)oc3c(C)c2o1 [TRIOXSALEN] | > 20 µM | > 20 µM
46 | O=C1OC(c2ccc(O)cc2)(c2ccc(O)cc2)c2ccccc21 [PHENOLPHTHALEIN] | > 20 µM | > 20 µM
47 | COC(=O)C1=C(C)NC(C)=C(C(=O)OCCCN2CCC(c3ccccc3)(c3ccccc3)CC2)C1c1cccc([N+](=O)[O-])c1 (configuration not stated) | > 20 µM | > 20 µM
48 | CN1C[C@H](CO)C=C2c3cccc4[nH]cc(c34)C[C@H]21 | > 20 µM | > 20 µM
49 | NCCC(=O)NCCc1c[nH]cn1 [CARCININE] | > 20 µM | > 20 µM
50 | Cc1cnc(C(=O)NCCc2ccc(S(=O)(=O)NC(=O)NC3CCCCC3)cc2)cn1 [GLIPIZIDE] | > 20 µM | > 20 µM
51 | Cc1cc(NC(=O)NCCN2CCC(O)(Cc3ccccc3)CC2)c2ccccc2n1 [PALOSURAN] | > 20 µM | > 20 µM
52 | CC12CCC3C(CCC4CC(=O)CCC43C)C1CCC2=O (configuration not stated) | > 20 µM | > 20 µM
53 | CO[C@H]1/C=C/O[C@@]2(C)Oc3c(C)c(O)c4c(c3C2=O)C2=NC3(CCN(CC(C)C)CC3)NC2=C(NC(=O)/C(C)=C\C=C\[C@H](C)[C@H](O)[C@@H](C)[C@@H](O)[C@@H](C)[C@H](OC(C)=O)[C@@H]1C)C4=O [RIFABUTIN] | > 20 µM | > 20 µM
54 | CCOC(=O)[C@H](CCc1ccccc1)N[C@@H](C)C(=O)N1Cc2ccccc2C[C@H]1C(=O)O | > 20 µM | > 20 µM
55 | O=C(O)c1ccccn1 [2-PICOLINIC ACID] | > 20 µM | > 20 µM
56 | COc1cc2ncnc(Oc3cccc(NC(=O)Nc4cc(C(C)(C)C(F)(F)F)on4)c3)c2cc1OC [CEP-32496] | > 20 µM | > 20 µM
57 | Cc1ccc([C@@]23Cn4cccc4C(=O)N2CCN3C(=O)c2conc2C)cn1 | > 20 µM | > 20 µM
58 | CCC(C)(C)C(=O)O[C@H]1C[C@@H](C)C=C2C=C[C@H](C)[C@H](CC[C@@H]3C[C@@H](O)CC(=O)O3)[C@H]21 [SIMVASTATIN] | > 20 µM | > 20 µM
59 | Oc1ccc(OCc2ccccc2)cc1 [MONOBENZONE] | > 20 µM | > 20 µM
60 | NC1=NCC(c2ccc(Cl)cc2)O1 (configuration not stated) [CLOMINOREX] | > 20 µM | > 20 µM
61 | CN(C)C[C@H]1CCCC[C@]1(O)c1cccc(O)c1 [O-DESMETHYL TRAMADOL] | > 100 µM | > 100 µM
62 | NS(=O)(=O)NCCNc1nonc1/C(=N/O)Nc1ccc(F)c(Br)c1 [EPACADOSTAT] | > 20 µM | > 20 µM
63 | O=c1c(O)c(-c2ccc(O)c(O)c2)oc2cc(O)cc(O)c12 [QUERCETIN] | > 20 µM | > 20 µM
64 | OC(CCN1CCCCC1)(c1ccccc1)c1ccccc1 [PRIDINOL] | > 20 µM | > 20 µM
65 | NCc1ccccc1CC(=O)N[C@@H]1C(=O)N2C(C(=O)O)=C(CSc3nnnn3CC(=O)O)CS[C@H]12 [CEFORANIDE] | > 20 µM | > 20 µM
66 | Cc1cccc(Cc2c[nH]cn2)c1C [DETOMIDINE] | > 20 µM | > 20 µM
